Source: the supplement of paper PMC9663587

Columns and labels:
Assay in all cases: area over the GR curve, 72 h; higher = more effect;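 further: Dye Drop or Deep Dye Drop imaging of viable cells in 384-well plates (Hoechst nuclei, LIVE/DEAD dye), nine half-log doses, GR normalized to DMSO controls and time-zero plates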
[1] = test system: EVSAT
[2] = test system: MCF7
[3] = test system: PDXHCI002
[4] = test system: HS578T
[5] = test system: MDAMB361
[6] = test system: CAL120
[7] = test system: HCC38
[8] = test system: BT474
[9] = test system: PDX1258
[10] = test system: HCC202
[11] = test system: T47D
[12] = test system: SUM52PE

Structure (SMILES)	area over the GR curve [1]	area over the GR curve [2]	area over the GR curve [3]	area over the GR curve [4]	area over the GR curve [5]	area over the GR curve [6]	area over the GR curve [7]	area over the GR curve [8]	area over the GR curve [9]	area over the GR curve [10]	area over the GR curve [11]	area over the GR curve [12]
CC(C)NC[C@@H](C(=O)N1CCN(c2ncnc3c2[C@H](C)C[C@H]3O)CC1)c1ccc(Cl)cc1 [Ipatasertib/GDC0068] (max 10 µM)	0.463 GR	0.26 GR	-0.114 GR	0.246 GR	0.453 GR	0.13 GR	0.122 GR	0.344 GR	0.15 GR	0.169 GR	0.428 GR	0.0168 GR
C=CC(=O)Nc1ccc(C(=O)Nc2[nH]nc3c2CN(C(=O)N[C@H](CN(C)C)c2ccccc2)C3(C)C)cc1 [YKL-5-124] (max 10 µM)	0.911 GR	0.806 GR	0.849 GR	0.815 GR	1.14 GR	0.591 GR	0.928 GR	0.944 GR	0.993 GR	0.706 GR	0.872 GR	0.564 GR
CCc1cnn2c(NCc3ccc[n+]([O-])c3)cc(N3CCCC[C@H]3CCO)nc12 (max 1 µM)	0.0948 GR	0.644 GR	0.584 GR	0.616 GR	0.593 GR	0.555 GR	0.62 GR	0.728 GR	0.685 GR	0.406 GR	0.47 GR	0.491 GR
CC(=O)c1c(C)c2cnc(Nc3ccc(N4CCN(CCOCCOCCOCCNC(=O)COc5cccc6c5C(=O)N(C5CCC(=O)NC5=O)C6=O)CC4)cn3)nc2n(C2CCCC2)c1=O (configuration not stated) [BSJ-03-123] (max 10 µM)	0.194 GR	0.306 GR	0.246 GR	0.298 GR	0.439 GR	0.16 GR	0.566 GR	0.464 GR	0.0283 GR	0.221 GR	0.746 GR	0.219 GR
CN(C)C/C=C/C(=O)Nc1ccc(O[C@@H]2CCC[C@@H](Nc3ncc(Cl)c(-c4c[nH]c5ccccc45)n3)C2)cc1 [BSJ-01-175] (max 10 µM)	0.637 GR	1.19 GR	0.906 GR	1.07 GR	1.32 GR	0.667 GR	0.603 GR	0.826 GR	1.3 GR	0.685 GR	0.537 GR	0.618 GR
Nc1ccc(-c2ccc3ncc4ccc(=O)n(-c5cccc(C(F)(F)F)c5)c4c3c2)cn1 [Torin2] (max 1 µM)	0.511 GR	0.603 GR	0.0743 GR	0.566 GR	0.869 GR	0.487 GR	0.538 GR	0.604 GR	0.362 GR	0.473 GR	0.522 GR	0.533 GR
CC[C@@H]1C(=O)N(C)c2cnc(Nc3ccc(C(=O)N[C@H]4CC[C@H](N5CCN(CC6CC6)CC5)CC4)cc3OC)nc2N1C(C)C [Volasertib/BI6727] (max 1 µM)	0.666 GR	0.605 GR	0.831 GR	0.82 GR	0.793 GR	0.676 GR	0.59 GR	0.636 GR	0.549 GR	0.38 GR	0.385 GR	0.488 GR
O=C1NC(=O)[C@@H](c2cn3c4c(cccc24)CCC3)[C@@H]1c1c[nH]c2ccccc12 [Tivantinib/ARQ197] (max 10 µM)	0.443 GR	0.453 GR	0.528 GR	0.437 GR	0.514 GR	0.465 GR	0.436 GR	0.309 GR	0.373 GR	0.277 GR	0.365 GR	0.411 GR
CN1CC[C@H](c2c(O)cc(O)c3c(=O)cc(-c4ccccc4Cl)oc23)[C@H](O)C1 [Flavopiridol] (max 1 µM)	0.157 GR	0.36 GR	0.278 GR	0.254 GR	0.397 GR	0.229 GR	0.29 GR	0.371 GR	0.341 GR	0.273 GR	0.274 GR	0.215 GR
Cc1nc(Nc2ncc(C(=O)Nc3c(C)cccc3Cl)s2)cc(N2CCN(CCO)CC2)n1 [Dasatinib] (max 10 µM)	0.379 GR	0.483 GR	0.376 GR	0.71 GR	0.351 GR	0.519 GR	0.145 GR	0.695 GR	0.714 GR	0.779 GR	0.193 GR	0.451 GR
Cc1nc(-c2cn3c(n2)-c2ccc(-c4cnn(C(C)(C)C(N)=O)c4)cc2OCC3)n(C(C)C)n1 [Taselisib/GDC0032] (max 10 µM)	0.412 GR	0.768 GR	0.374 GR	0.374 GR	1.41 GR	0.235 GR	0.202 GR	1.43 GR	0.278 GR	0.791 GR	0.899 GR	0.647 GR
Cc1nc(NC(=O)N2CCC[C@H]2C(N)=O)sc1-c1ccnc(C(C)(C)C(F)(F)F)c1 [Alpelisib/BYL719] (max 10 µM)	0.0161 GR	0.326 GR	0.063 GR	0.0905 GR	0.531 GR	0.0922 GR	0.0391 GR	0.468 GR	0.0534 GR	0.351 GR	0.455 GR	0.19 GR
COc1cc(N2CCN(C)CC2)ccc1Nc1ncc2c(n1)N(C)c1ccccc1C(=O)N2CC(F)(F)F [FMF-03-146-1]	-0.0034 GR	0.0454 GR	-0.0147 GR	0.0103 GR	0.126 GR	-0.0113 GR	0.0485 GR	0.0118 GR	-0.0674 GR	0.0146 GR	0.0652 GR	-0.0411 GR
CN(C)CC[C@H](CSc1ccccc1)Nc1ccc(S(=O)(=O)NC(=O)c2ccc(N3CCN(Cc4ccccc4-c4ccc(Cl)cc4)CC3)cc2)cc1[N+](=O)[O-] [ABT-737] (max 10 µM)	0.0258 GR	0.0119 GR	0.0548 GR	0.026 GR	-0.0339 GR	0.2 GR	0.296 GR	-0.0268 GR	-0.0015 GR	-0.0052 GR	-0.0166 GR	0.0757 GR
CO[C@@H](C)Cn1c(=O)n(C)c2cnc3ccc(-c4cncc(C(C)(C)O)c4)cc3c21 (max 10 µM)	0.795 GR	0.834 GR	0.228 GR	0.688 GR	1.47 GR	0.696 GR	0.664 GR	1.15 GR	0.557 GR	0.726 GR	0.894 GR	0.75 GR
CN(C)C/C=C/C(=O)Nc1ccc(C(=O)Nc2cccc(Nc3ncc(Cl)c(-c4c[nH]c5ccccc45)n3)c2)cc1 [THZ1] (max 1 µM)	0.251 GR	0.514 GR	0.527 GR	0.518 GR	0.746 GR	0.337 GR	0.525 GR	0.686 GR	0.633 GR	0.42 GR	0.446 GR	0.527 GR
CS(=O)(=O)N1CCN(Cc2cc3nc(-c4cccc5[nH]ncc45)nc(N4CCOCC4)c3s2)CC1 [Pictilisib/GDC0941] (max 10 µM)	0.387 GR	0.506 GR	0.212 GR	0.311 GR	0.716 GR	0.255 GR	0.118 GR	0.588 GR	0.23 GR	0.431 GR	0.477 GR	0.364 GR
CN1CCN(C(=O)c2ccc3cc(CCNc4ncnc5ccc(C#N)cc45)ccc3c2)CC1 [senexin b] (max 10 µM)	0.0803 GR	0.249 GR	-0.125 GR	0.139 GR	0.323 GR	0.131 GR	0.152 GR	0.0613 GR	0.125 GR	0.182 GR	0.322 GR	0.141 GR
CC1(N)CCN(c2cnc(-c3cccc(Cl)c3Cl)c(N)n2)CC1 [SHP099] (max 10 µM)	-0.0008 GR	0.0308 GR	0.0735 GR	0.142 GR	0.13 GR	-0.0004 GR	0.172 GR	-0.022 GR	-0.0325 GR	0.051 GR	0.0099 GR	-0.0423 GR
CNC(=O)c1cccc(-c2ccc3c(N4CCOC[C@@H]4C)nc(N4CCOC[C@@H]4C)nc3n2)c1 [AZD2014] (max 10 µM)	0.75 GR	0.854 GR	0.0467 GR	0.504 GR	1.2 GR	0.464 GR	0.418 GR	1.01 GR	0.41 GR	0.698 GR	0.959 GR	0.682 GR
O=C(c1cc(Cc2n[nH]c(=O)c3ccccc23)ccc1F)N1CCN(C(=O)C2CC2)CC1 [Olaparib/AZD2281] (max 10 µM)	0.0599 GR	0.0554 GR	0.167 GR	0.0997 GR	0.0967 GR	0.143 GR	0.0719 GR	0.0431 GR	0.02 GR	0.127 GR	0.0229 GR	-0.0471 GR
O=C1NC(=NCc2cccs2)SC1=Cc1ccc2ncccc2c1 [R0-3306] (max 10 µM)	0.115 GR	0.0991 GR	0.0778 GR	0.139 GR	0.0965 GR	0.0133 GR	0.0714 GR	0.22 GR	0.0971 GR	0.14 GR	0.14 GR	0.0606 GR
CC(C)n1nc(-c2ccc3oc(N)nc3c2)c2c(N)ncnc21 [INK128/MLN0128] (max 3.162 µM)	0.691 GR	0.726 GR	0.122 GR	0.623 GR	1.1 GR	0.602 GR	0.536 GR	0.834 GR	0.449 GR	0.581 GR	0.689 GR	0.572 GR
Nc1cc(C(F)(F)F)c(-c2cc(N3CCOCC3)nc(N3CCOCC3)n2)cn1 [Buparlisib/NVP-BKM120] (max 10 µM)	0.322 GR	0.503 GR	0.229 GR	0.376 GR	0.611 GR	0.339 GR	0.254 GR	0.53 GR	0.245 GR	0.371 GR	0.482 GR	0.338 GR
COc1cccc(OCCCN)c1-c1cc(Nc2cnc(C#N)cn2)n[nH]1	0.0022 GR	0.794 GR	0.045 GR	1.3 GR	0.828 GR	0.344 GR	0.858 GR	0.186 GR	0.868 GR	0.332 GR	0.18 GR	0.425 GR
Cc1nn(C)c(COc2ccc(N3CCN(S(=O)(=O)N(C)C)CC3)cc2)c1-c1cccc2c(CCCOc3cccc4ccccc34)c(C(=O)O)n(CCN3CCOCC3)c12 (max 10 µM)	0.0097 GR	-0.0002 GR	-0.05 GR	-0.0079 GR	-0.0172 GR	0.0152 GR	0.0151 GR	-0.0275 GR	-0.0034 GR	-0.005 GR	0.0143 GR	0.0586 GR
